This is an account of results in US20250042891A1, “Compound containing structure of a heteroaromatic ring, pharmaceutical composition thereof and application thereof” (SHANGHAI YINGLI PHARMACEUTICAL CO., LTD, priority 2023, published 2025).

For assay [1], the target named is PARG (389-976) (Homo sapiens (Human), UniProt Q86W56). Kind of assay: PARG enzyme inhibition assay (TR-FRET). The format is biochemical. As to the method:
PARG in vitro assays were conducted in standard 384-well plates in a total volume of 15 μL. 5 μL of PARG (389-976) (manufactured by Chempartner Chemical Co., Ltd.) in buffer (50 mM Tris-HCL 7.5, 30 mM KCl, 1 mM EDTA, 3 mM DTT, tween-20 0.01%, BSA 0.025%) was added at a final concentration of 1.5 pM to the 384-well plates containing the compounds to be tested, which was incubated for 30 min at room temperature. To the above mixture was added 5 μL Bio PARylated His-TEV-PARP1(2-1014) substrate (manufactured by Chempartner Chemical Co., Ltd.) at a final concentration of 12 nM, after addition, the resulting mixture was incubated for 30 minutes at room temperature. Then to the mixture was added detection reagent (5 μL) which was buffered with 50 mM Tris-HCL 7.5, 30 mM KCl, 1 mM EDTA, 3 mM DTT, tween-20 0.01%, BSA 0.025%, and consisted of 3 μM of compound PDD00017273 and 9 nM Mab anti-6HIS XL665 (Cisbio: 61HISXLA) and 0.9 nM streptavidin affinity terbium cryptate (Cisbio:610SATLA), all at 3× working concentrations (final concentrations of 1 μM, 3 nM and 0.3 nM, respectively). After 120 min incubation in the dark at room temperature, TR-FRET signals were measured at Ex 340 and Em 665 and Em 615. The ratio for each well was calculated as Em 665/Em 615 and the compound inhibition rate was calculated based on the obtained data.

For assay [2], the system named is HCC1395. Put plainly: CTG assay for proliferation inhibition of cell lines. The format is cell-based. To be noted: HCC1395, 7 days, CellTiter Glo. As to the method:
(§1) The assay was conducted on either 384-well plates or 96-well plates. The procedures are as follows:
(§2) The cell suspensions were added to 384- or 96-well plates (384-well plate: 50 μL; 96-well plate: 100 μL) except for peripheral wells. The plates were incubated in a carbon dioxide incubator overnight, HCC1395, HCC1428 and NCI-H460 were placed in a carbon dioxide incubator of 5%, […] overnight. Prepared compounds (10 concentration gradients by serial 3-fold dilution) were added to the wells using the HPD300 micro-dosing instrument. The cell plates were incubated in a carbon dioxide incubator for 7 days. HCC1395, HCC1428 and NCI-H460 were incubated in a 5%, 37° CO2 incubator. On the day of plate measurement, 384- or 96-well plates were first equilibrated at room temperature for 10-30 minutes, then to the 384- or 96-well plate was added CellTiter Glo reagent (384-well plate: 25 μL; 96-well plate: 100 μL), shaken for 10 minutes away from light, and incubated for 10 minutes. The incubated plates were placed into Victor NIVO reader plates, and the pharmacodynamic inhibition curves were plotted and IC50 values were calculated using XLFit.
On the technique in general: Cellular ATP, detected with luciferase, serves as a proxy for viable cell number.

The subject of assay [3] is HCC1428. The assay is described as above. It counts as cell-based. To be noted: HCC1428, 7 days, CellTiter Glo. As to the method: as §1, §2
Assay [4] concerns NCI-H460. The description is as above. It counts as cell-based. The conditions noted are these: NCI-H460, 7 days, CellTiter Glo. As to the method: as §1, §2
Setting [5] is: class symbol, Bio PARylated His-TEV-PARP1 substrate, TR-FRET.
Setting [6] is: numeric value in parentheses under the class symbol.

Sequence of PARG (389-976) (Q86W56 389-976): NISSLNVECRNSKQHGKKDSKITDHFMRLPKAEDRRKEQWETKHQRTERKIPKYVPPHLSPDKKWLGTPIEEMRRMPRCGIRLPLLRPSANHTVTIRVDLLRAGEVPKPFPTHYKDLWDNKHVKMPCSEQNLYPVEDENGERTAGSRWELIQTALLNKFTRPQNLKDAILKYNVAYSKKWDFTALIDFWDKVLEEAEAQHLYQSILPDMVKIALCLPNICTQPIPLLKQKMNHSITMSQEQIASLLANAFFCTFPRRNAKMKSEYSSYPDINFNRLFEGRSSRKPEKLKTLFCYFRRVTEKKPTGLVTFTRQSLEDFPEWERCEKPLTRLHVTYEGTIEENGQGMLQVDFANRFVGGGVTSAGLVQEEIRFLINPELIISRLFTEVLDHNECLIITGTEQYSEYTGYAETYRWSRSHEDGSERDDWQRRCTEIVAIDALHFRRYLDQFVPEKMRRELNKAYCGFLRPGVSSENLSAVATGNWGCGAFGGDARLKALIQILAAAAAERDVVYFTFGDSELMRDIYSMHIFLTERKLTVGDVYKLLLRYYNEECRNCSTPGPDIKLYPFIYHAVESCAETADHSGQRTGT

In the case of `CC(C)C(=O)N1CCN(c2cc(S(=O)(=O)NC3(C#N)CC3)cc3c2cnn3-c2nnc(C(F)F)s2)CC1` [1′, reference compound], the IC50 in assay [1] (setting [5]) was 1 to 10 nM; in assay [1] (setting [6]), 1.9 nM; in assay [2] (Homo sapiens, 168 h), 1.29 µM; in assay [3] (Homo sapiens, 168 h), 1.38 µM; in assay [4] (Homo sapiens, 168 h) it was 0.796 µM.

Take `CC(C)S(=O)(=O)N1CC=C(c2cc(S(=O)(=O)NC3(C#N)CC3)cc3c(-c4nnc(C(F)(F)F)s4)nn(CC4COC4)c23)CC1` [Compound 60]: the IC50 was 1 to 10 nM in assay [1] (setting [5]); 0.181 µM in assay [2] (Homo sapiens, 168 h); 0.0778 µM in assay [3] (Homo sapiens, 168 h); 0.115 µM in assay [4] (Homo sapiens, 168 h).

Regarding `Cn1nc(-c2nnc(C(F)F)s2)c2cc(S(=O)(=O)NC3(C#N)CC3)cc(C3=CCN(S(=O)(=O)C4CCNCC4)CC3)c21` [Compound 39], the IC50 in assay [1] (setting [5]) was < 1 nM; in assay [2] it was 0.827 µM; in assay [3], 0.369 µM; in assay [4], 0.429 µM.

`CC(C)S(=O)(=O)N1CC=C(c2cc(S(=O)(=O)NC3(C#N)CC3)cc3c(-c4nnc(C(F)(F)F)s4)nn(CC(F)(F)F)c23)CC1` [Compound 58]: the IC50 in assay [1] (setting [5]) was 1 to 10 nM; in assay [2] it was 0.253 µM; in assay [3] it was 0.201 µM; in assay [4] it was 0.216 µM.

As for `CC(C)S(=O)(=O)N1CC=C(c2cc(S(=O)(=O)NC3(C)CC3)cc3c(-c4nnc(C(F)F)s4)nn(C)c23)CC1` [Compound 19], the IC50 in assay [1] (setting [5]) is < 1 nM; in assay [1] (setting [6]) it was 0.12 nM; in assay [2] it was 0.0532 µM; in assay [3] it was 0.196 µM; in assay [4], 0.0414 µM.

With `CN(C)S(=O)(=O)N1CC=C(c2cc(S(=O)(=O)NC3(C#N)CC3)cc3c(-c4nnc(C(F)F)s4)nn(C)c23)CC1` [Compound 32], the IC50 in assay [1] (setting [5]) was 1 to 10 nM; in assay [1] (setting [6]), 1.03 nM; in assay [2], 0.177 µM; in assay [3], 0.232 µM; in assay [4] it was 0.21 µM.

In the case of `CC(C)S(=O)(=O)N1CC=C(c2cc(S(=O)(=O)NC3(CF)CC3)cc3c(-c4nnc(C(F)F)s4)nn(C)c23)CC1` [Compound 18], the IC50 in assay [1] (setting [5]) is < 1 nM; in assay [1] (setting [6]) it was 0.12 nM; in assay [2], 0.0423 µM; in assay [3], 0.215 µM; in assay [4] it was 0.0408 µM.

`CC(C)S(=O)(=O)N1CCC(c2cc(S(=O)(=O)NC3(C#N)CC3)cc3c(-c4nnc(C(F)F)s4)nn(C)c23)=C(CO)C1` [Compound 36]: the IC50 in assay [1] (setting [5]) was < 1 nM; in assay [2] it was 0.127 µM; in assay [3] it was 0.0978 µM; in assay [4], 0.0729 µM.

Regarding `CN=S(=O)(C(C)C)N1CC=C(c2cc(S(=O)(=O)NC3(C#N)CC3)cc3c(-c4nnc(C(F)F)s4)nn(C)c23)CC1` (stereo not shown) [Compound 40], the IC50 was < 1 nM in assay [1] (setting [5]), 0.3 µM in assay [2], 0.454 µM in assay [3] and 0.261 µM in assay [4].

The term IC50 denotes the midpoint of a concentration-inhibition curve.
